Measured values published in ChEMBL document CHEMBL1201862, “PubChem BioAssay data set” (2004).
Activity calls are given as the source filed them.

Tests used:
[1] = THP-1 cell cytotoxicity, dose response, cytotoxicity control for non-replicating M. tuberculosis project (AID 489025); format: functional
[2] = Vero E6 cell cytotoxicity, dose response, cytotoxicity control for non-replicating M. tuberculosis project, secondary assay (AID 492998); format: functional, VeroE6; conditions: Vero C1008
[3] = HepG2 cell cytotoxicity, dose response, cytotoxicity control for non-replicating M. tuberculosis project (AID 489018); format: functional; conditions: Mycobacterium tuberculosis
[4] = viability of HCT116 lacking mutant beta-catenin – cell-based, human colon tumor, dose response (AID 1045); format: functional;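 note: HCT116 colon tumor cells with beta catenin knocked out; cells exposed to compound for 60 hours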
[5] = viability of PTEN-deleted HCT116 cells – cell-based, HCT116 PTEN knockout, dose response (AID 1047); format: functional;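 note: HCT116 colon tumor cells with PTEN knocked out; cells exposed to compound for 60 hours before readout; potency for loss of cell viability measured by luminescence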
cells [6] = format: functional
[7] = target: T1, Heat shock factor protein 1 (Mus musculus, UniProt P38532); assay: enhancement of HSF1-driven luciferase signal – cell-based, NIH3T3, luminescence, dose retest, confirmation (AID 435004); format: functional;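 note: stress induced by proteasome inhibitor MG132 added 30 min after compound; luciferase reporter driven by HSF1 response element in NIH3T3 cells; actives raise luminescence as potentiators of the MG132 stress response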
T1 sequence (P38532 whole entry): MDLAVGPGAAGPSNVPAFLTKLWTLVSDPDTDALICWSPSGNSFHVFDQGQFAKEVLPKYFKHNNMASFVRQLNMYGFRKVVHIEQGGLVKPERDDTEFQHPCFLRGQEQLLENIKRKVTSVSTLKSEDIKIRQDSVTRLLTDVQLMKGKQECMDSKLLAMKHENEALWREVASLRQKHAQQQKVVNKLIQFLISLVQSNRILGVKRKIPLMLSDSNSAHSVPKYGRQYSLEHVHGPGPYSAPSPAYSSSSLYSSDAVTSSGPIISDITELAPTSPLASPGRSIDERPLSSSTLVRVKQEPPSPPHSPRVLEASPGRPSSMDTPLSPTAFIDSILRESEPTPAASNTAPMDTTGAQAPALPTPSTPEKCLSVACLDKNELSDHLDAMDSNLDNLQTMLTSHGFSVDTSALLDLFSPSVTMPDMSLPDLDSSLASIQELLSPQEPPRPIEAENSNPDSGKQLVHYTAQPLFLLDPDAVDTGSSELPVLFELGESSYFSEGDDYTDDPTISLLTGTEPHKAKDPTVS

cells [8] = format: functional, cell-based
cells [9] = format: functional, cell-based; remark: listed apart in the source
Cytochrome P450 2C9 [10] = target: T2, Cytochrome P450 2C9 (Homo sapiens, UniProt P11712)
Cytochrome P450 2C19 = Cytochrome P450 2C19 (Homo sapiens, UniProt P33261); assay: Cytochrome panel assay with activity outcomes. Panel member name: p450-cyp2c19 Compounds with AC50 equal or less than 10 uM are considered active; format: functional; conditions: read-out: AC50
Cytochrome P450 3A4 = Cytochrome P450 3A4 (Homo sapiens, UniProt P08684);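 note: CYP3A4 tested as one member of a cytochrome P450 panel screen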
[11] = Luminescence Cell-Based Dose Response HTS to Identify Inhibitors of 5'UTR Stem-Loop Driven Prion Protein mRNA Translation in H4 Neuroglioblastoma Cells. [Related pubchem assays: 1827 (Project Summary), 1813 (Primary HTS)]; format: functional
[12] = alpha-synuclein stem-loop luciferase translation blockers – H4 neuroglioma cells, luminescence, confirmation (AID 1988); format: functional, cell-based
[13] = luciferase reporter signal suppression in cells – H4 neuroglioma cells, luminescence, dose response (AID 1990); format: functional, cell-based
Streptococcus = assay: GAS UMAA2166 growth inhibition – luminescence, BacTiterGlo, counter-screen for streptokinase expression inhibitor project, dose response (AID 1915); format: functional, organism-based;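 note: potency for reduction of bacterial viability or growth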
[14] = system: Streptococcus sp. 'group A'; assay: Streptococcus pyogenes SK(-)GAS viability under kanamycin – luminescence, BacTiterGlo, confirmation, counter-screen for streptokinase expression inhibitor project, dose response (AID 1900); format: functional, organism-based
[15] = fluconazole-exposed Candida albicans growth modulators – fluorescence, retest, confirmation (AID 2467); format: functional, cell-based
[16] = NIH-3T3 fibroblast cytotoxicity, dose response, cytotoxicity control, cell-based, fluorescence, Alamar Blue, secondary assay (AID 2327); format: functional;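 note: NIH-3T3 mouse fibroblasts cultured with fluconazole at 8 µg/mL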
Vero = assay: cells; format: functional; conditions: Chlorocebus sabaeus
Protein skinhead-1 = target: T3, Protein skinhead-1 (Caenorhabditis elegans, UniProt P34707); format: functional
T3 sequence (P34707 whole entry): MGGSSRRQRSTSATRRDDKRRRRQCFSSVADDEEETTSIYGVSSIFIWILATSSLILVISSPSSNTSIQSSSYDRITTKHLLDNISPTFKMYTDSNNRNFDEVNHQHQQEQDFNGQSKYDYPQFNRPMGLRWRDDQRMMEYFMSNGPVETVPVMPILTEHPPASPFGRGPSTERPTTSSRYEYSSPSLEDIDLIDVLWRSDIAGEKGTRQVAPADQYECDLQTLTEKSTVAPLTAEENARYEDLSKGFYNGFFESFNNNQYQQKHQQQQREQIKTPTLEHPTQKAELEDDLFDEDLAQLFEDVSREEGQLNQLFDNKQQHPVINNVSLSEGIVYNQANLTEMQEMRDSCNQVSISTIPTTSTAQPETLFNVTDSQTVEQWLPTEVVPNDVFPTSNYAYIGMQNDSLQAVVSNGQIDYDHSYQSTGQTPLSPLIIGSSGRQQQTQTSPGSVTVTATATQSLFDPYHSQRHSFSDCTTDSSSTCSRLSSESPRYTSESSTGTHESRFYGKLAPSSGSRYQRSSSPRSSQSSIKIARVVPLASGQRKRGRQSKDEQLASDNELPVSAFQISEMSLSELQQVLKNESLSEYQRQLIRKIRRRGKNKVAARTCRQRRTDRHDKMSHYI

[17] = non-specific 3'UTR reporter inhibition in Clone20-Shn3RL – cell-based, Renilla luciferase, cherry-picked, counter-screen for Shn3 inhibitor project, dose response (AID 624133); format: functional
INS1 = assay: INS-1E survival protection against cytokine death – cell-based, luminescence, retest, dose response (AID 449756); format: functional; conditions: Rattus norvegicus;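 note: cell death triggered by IL-1 beta plus TNF-alpha plus IFN-gamma mixture; protective hits raise ATP signal compared with cytokine alone wells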
[18] = reduction of Shn3 3'UTR-driven luciferase in osteoblasts – cell-based, Clone20 osteoblasts, firefly luciferase, cherry-picked, dose response (AID 624132); format: functional;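 note: firefly luciferase luminescence from reporter carrying the Shn3 3'UTR in osteoblasts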
Streptokinase A = target: T4, Streptokinase A (Streptococcus pyogenes serotype M1, UniProt P10520); assay: viability-normalized secreted streptokinase activity reduction – plasminogen activation absorbance, OD405, dose response (AID 1914); format: functional, Streptococcus pyogenes M1 GAS;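 note: secreted streptokinase activity via plasminogen activation per viability signal from cell pellet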
T4 sequence (P10520 whole entry): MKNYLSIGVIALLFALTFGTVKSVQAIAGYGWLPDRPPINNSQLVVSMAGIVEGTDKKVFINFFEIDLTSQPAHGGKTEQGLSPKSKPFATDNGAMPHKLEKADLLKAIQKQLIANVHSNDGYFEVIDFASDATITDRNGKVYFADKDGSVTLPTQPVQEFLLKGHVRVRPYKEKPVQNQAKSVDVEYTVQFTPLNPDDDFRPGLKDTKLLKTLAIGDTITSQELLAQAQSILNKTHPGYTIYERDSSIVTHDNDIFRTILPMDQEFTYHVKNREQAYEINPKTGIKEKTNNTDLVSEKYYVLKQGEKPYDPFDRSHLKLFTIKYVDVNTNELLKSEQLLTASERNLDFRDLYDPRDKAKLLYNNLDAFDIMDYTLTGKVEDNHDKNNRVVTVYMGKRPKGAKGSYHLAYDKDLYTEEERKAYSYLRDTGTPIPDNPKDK

Large T antigen = Large T antigen (Simian virus 40, UniProt P03070); format: functional, Betapolyomavirus macacae;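 note: Confirmatory-stage PubChem screen for compounds that inhibit SV40 T antigen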
[19] = target: FAD-linked sulfhydryl oxidase ALR (Homo sapiens, UniProt P55789); assay: ALR-catalysed DTT oxidation blockers – biochemical, H2O2 detection, luminescence, cherry-pick, dose response (AID 493248)
Cytochrome P450 2C9 [20] = target: T2, Cytochrome P450 2C9; remark: listed apart in the source
Cytochrome P450 2D6 = Cytochrome P450 2D6 (Homo sapiens, UniProt P10635);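 note: CYP2D6 member of a cytochrome P450 panel assay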
H9c2 = assay: cells; format: functional, cell-based; conditions: Rattus norvegicus, H9c2, Myocardium
[21] = Luminescence Cell-Based Dose Retest to Confirm Inhibitors of Cancer Stem Cells. [Related pubchem assays (depositor defined):AID2717, AID2721]; format: functional; conditions: Homo sapiens

T2 sequence (P11712 whole entry): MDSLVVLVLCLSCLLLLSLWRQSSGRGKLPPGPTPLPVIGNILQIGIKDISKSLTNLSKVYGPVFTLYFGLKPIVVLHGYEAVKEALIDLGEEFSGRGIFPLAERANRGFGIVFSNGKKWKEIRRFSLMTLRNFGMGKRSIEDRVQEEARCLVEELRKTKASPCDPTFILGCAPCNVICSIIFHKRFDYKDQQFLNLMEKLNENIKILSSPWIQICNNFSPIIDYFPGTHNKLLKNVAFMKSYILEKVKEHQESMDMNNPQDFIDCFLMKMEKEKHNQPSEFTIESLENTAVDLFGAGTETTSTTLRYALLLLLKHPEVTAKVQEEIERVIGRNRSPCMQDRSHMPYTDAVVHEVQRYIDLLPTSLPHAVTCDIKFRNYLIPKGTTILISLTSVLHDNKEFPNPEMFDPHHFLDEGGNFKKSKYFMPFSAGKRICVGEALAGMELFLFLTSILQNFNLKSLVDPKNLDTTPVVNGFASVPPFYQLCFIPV
Chain of Cytochrome P450 2C19 (P33261 whole entry): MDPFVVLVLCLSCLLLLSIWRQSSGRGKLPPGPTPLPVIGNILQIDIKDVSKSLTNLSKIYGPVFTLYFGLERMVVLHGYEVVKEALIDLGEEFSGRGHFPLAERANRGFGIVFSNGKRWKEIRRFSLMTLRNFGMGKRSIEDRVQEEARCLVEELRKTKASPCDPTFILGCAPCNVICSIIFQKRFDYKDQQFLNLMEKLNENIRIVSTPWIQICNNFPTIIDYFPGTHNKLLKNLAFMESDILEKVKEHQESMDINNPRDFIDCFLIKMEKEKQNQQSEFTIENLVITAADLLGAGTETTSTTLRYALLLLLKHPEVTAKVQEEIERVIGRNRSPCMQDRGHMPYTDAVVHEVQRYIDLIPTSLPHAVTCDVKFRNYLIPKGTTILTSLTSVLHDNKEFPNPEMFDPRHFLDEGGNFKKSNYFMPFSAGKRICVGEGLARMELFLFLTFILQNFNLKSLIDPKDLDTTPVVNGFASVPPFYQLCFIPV
Chain of Cytochrome P450 2D6 (P10635 whole entry): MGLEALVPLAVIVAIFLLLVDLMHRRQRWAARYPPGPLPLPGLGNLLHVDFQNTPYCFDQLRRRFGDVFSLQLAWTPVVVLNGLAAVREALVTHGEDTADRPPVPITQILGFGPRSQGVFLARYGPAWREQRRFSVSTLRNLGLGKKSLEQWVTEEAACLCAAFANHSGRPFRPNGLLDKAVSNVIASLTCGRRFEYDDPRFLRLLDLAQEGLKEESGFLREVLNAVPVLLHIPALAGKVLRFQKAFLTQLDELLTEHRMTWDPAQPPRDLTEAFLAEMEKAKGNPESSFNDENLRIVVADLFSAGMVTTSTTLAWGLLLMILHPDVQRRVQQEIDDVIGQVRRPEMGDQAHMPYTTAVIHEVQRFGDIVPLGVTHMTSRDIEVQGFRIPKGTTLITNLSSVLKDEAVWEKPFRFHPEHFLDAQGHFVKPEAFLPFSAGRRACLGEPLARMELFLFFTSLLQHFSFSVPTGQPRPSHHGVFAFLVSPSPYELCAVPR
Chain of Cytochrome P450 3A4 (P08684 whole entry): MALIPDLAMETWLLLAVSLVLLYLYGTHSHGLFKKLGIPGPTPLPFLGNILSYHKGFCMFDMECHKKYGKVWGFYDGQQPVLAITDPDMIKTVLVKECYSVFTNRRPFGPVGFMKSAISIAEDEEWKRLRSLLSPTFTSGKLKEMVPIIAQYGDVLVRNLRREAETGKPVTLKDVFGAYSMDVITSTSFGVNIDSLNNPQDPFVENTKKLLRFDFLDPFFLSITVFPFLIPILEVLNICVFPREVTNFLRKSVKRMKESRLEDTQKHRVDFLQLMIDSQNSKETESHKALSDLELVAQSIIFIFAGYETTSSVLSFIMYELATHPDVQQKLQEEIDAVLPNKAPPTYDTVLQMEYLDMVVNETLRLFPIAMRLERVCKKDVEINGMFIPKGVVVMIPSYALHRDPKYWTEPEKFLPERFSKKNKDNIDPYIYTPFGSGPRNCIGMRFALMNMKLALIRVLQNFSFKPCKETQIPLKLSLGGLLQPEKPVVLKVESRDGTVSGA
Chain of Large T antigen (P03070 whole entry): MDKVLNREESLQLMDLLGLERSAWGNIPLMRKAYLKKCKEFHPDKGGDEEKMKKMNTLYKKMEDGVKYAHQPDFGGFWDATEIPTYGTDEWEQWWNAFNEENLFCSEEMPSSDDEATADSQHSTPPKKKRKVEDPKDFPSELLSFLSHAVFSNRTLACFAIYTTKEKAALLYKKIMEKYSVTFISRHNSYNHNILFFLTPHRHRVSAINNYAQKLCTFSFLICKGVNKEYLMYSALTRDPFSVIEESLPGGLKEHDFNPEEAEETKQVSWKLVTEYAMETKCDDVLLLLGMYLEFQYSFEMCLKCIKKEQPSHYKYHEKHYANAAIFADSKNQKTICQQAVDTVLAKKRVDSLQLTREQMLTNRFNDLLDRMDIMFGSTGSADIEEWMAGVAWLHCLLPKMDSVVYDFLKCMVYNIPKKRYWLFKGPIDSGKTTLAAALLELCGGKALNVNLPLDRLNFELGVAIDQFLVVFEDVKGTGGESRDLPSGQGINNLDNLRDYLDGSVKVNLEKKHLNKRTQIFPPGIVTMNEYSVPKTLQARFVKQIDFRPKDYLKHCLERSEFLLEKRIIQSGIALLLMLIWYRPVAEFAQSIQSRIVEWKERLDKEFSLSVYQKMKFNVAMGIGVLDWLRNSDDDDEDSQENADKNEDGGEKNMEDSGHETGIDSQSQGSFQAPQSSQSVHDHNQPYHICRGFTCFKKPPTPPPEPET
Chain of FAD-linked sulfhydryl oxidase ALR (P55789 whole entry): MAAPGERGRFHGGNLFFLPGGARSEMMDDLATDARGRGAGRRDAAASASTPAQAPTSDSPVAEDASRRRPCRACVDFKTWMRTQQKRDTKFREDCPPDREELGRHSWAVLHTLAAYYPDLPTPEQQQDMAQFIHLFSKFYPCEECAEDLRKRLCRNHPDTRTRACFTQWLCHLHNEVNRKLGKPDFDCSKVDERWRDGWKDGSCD

## CCOc1cc(CNCCO)cc(Br)c1OCc1ccc(Cl)cc1
[1]
  CC50: 9.41 µM (active)
[2]
  CC50: 12.7 µM (active)
[3]
  CC50: 11 µM (active)
[4]
  EC50: 7.16 µM (active)
[5]
  EC50: 7.29 µM (active)
Cells [6]
  IC50: 26.9 µM (active)

## COC(=O)c1cc(S(=O)(=O)C(C)C)c([S+](C)[O-])s1 (stereo not given)
[7]
  EC50: 93.8 µM (active)

## O=C(Cc1ccc(S(=O)(=O)N2CCOCC2)s1)Nc1ccc(S(=O)(=O)N2CCCCC2)cc1
Cells [8]
  EC50: > 350 µM (not active)
Cells [9]
  EC50: > 350 µM (not active)

## CCCCn1nc2cc(C(=O)NCC3CC3)ccc2c1OCC
Cytochrome P450 2C9 [10]
  AC50: inconclusive
Cytochrome P450 2C19
  AC50: 14.1 µM (inconclusive)

## Cl.Fc1ccc(CCNCc2cccc(Cl)c2)cc1
Cytochrome P450 2C9 [10]
  AC50: inconclusive
Cytochrome P450 3A4
  AC50: 12.6 µM (inconclusive)
Cytochrome P450 2C19
  AC50: 1 µM (inconclusive)

## CC(=O)Nc1ccc2nc(NC(=O)COc3ccccc3C)sc2c1
Cells [8]
  EC50: > 350 µM (not active)
Cells [9]
  EC50: > 350 µM (not active)

## CCOc1ccc(C(=O)Cc2cc(OC)c(OC)cc2[N+](=O)[O-])cc1
Cytochrome P450 2C9 [10]
  AC50: inconclusive
Cytochrome P450 2C19
  AC50: 1.41 µM (inconclusive)

## C=CCn1c(C)cc(C(=O)CN2C(=O)c3ccccc3C2=O)c1C
[11]
  EC50: 18.7 µM (active)
Cytochrome P450 2C9 [10]
  AC50: inconclusive
[12]
  EC50: 8.53 µM (active)
[13]
  EC50: 10.1 µM (inconclusive)

## CCc1c(O)oc2nnc(C)c-2c1C
Cytochrome P450 2C9 [10]
  AC50: inconclusive
Cytochrome P450 2C19
  AC50: 11.2 µM (inconclusive)

## C=CC[C@@H]1Cc2c(Br)ccc(Br)c2[C@@H](CC=C)N1
[7]
  EC50: > 260 µM (inactive)

## COc1ccc(C(=O)NC(=S)NNC(=O)c2ccccc2C)cc1
Streptococcus
  EC50: 2.83 µM (active)
[14]
  EC50: 1.31 µM (active)
[15]
  EC50: 1.69 µM (active)
[16]
  EC50: > 150 µM (inconclusive)
Vero
  CC50: > 25 µM (active)

## Cc1ccc(CNC(=O)[C@H](C)N2C(=O)N3CCc4c([nH]c5ccccc45)[C@@]3(C)C2=O)cc1
[7]
  EC50: > 260 µM (inactive)

## COC(=O)c1ccc2c(=O)n(Cc3ccc(C(=O)NCCCN4CCC(C)CC4)cc3)c(=S)[nH]c2c1
Vero
  CC50: 20.9 µM (active)

## COC(=O)[C@H](CCSC)NC(=O)c1cccnc1SC
Cells [8]
  EC50: > 350 µM (not active)
Cells [9]
  EC50: > 350 µM (not active)

## CCOC(=O)COn1c(-c2cccc(Cl)c2)nc2ccc([N+](=O)[O-])cc21
[2]
  CC50: > 20 µM (active)
Protein skinhead-1
  IC50: > 100 µM (inactive)
Cells [6]
  IC50: 28.9 µM (active)

## CCS(=O)(=O)c1ncc(Cl)c(C(=O)Nc2ccccc2OC)n1
[7]
  EC50: 8.04 µM (active)
[17]
  AC50: 4.81 µM (active)
INS1
  AC50: 38.9 µM (active)
[18]
  AC50: 3.71 µM (active)

## CCCCCCCCCCCC(=O)c1c(O)cccc1O
Streptokinase A
  EC50: > 150 µM (not active)
Streptococcus
  EC50: 7.15 µM (active)
[14]
  EC50: 1.53 µM (active)
[7]
  EC50: 60.1 µM (active)

## C=CCSc1cc(C)nc2c(-c3ccccc3)cnn12
Cells [8]
  EC50: > 350 µM (not active)
Cells [9]
  EC50: 26.8 µM (active)

## Cc1cn(Cc2ccccc2Cn2cc(C)c(=O)[nH]c2=O)c(=O)[nH]c1=O
[7]
  EC50: > 260 µM (inactive)

## O=c1c2ccccc2sc2nc(C3CCCCC3)n(Cc3ccco3)c(=O)c12
[7]
  EC50: 47.8 µM (active)

## CCN(CC)c1ccc(NC(=O)c2cccnc2)c(C)c1
Large T antigen
  IC50: 77.3 µM (active)
Cytochrome P450 2C9 [10]
  AC50: inconclusive
[19]
  AC50: 0.877 µM (active)
Cytochrome P450 2C19
  AC50: 39.8 µM (inconclusive)

## CC(=O)/N=c1\sccn1CC(=O)c1ccc([N+](=O)[O-])cc1
Cytochrome P450 2C9 [20]
  AC50: 0.0794 µM (inconclusive)
Cytochrome P450 2D6
  AC50: 14.1 µM (inconclusive)
[7]
  EC50: > 260 µM (inactive)

## CCn1c(/C=N/NC(=O)c2ccc(OC)cc2)nc2ccccc21
[1]
  CC50: 24.1 µM (active)
[2]
  CC50: 17.9 µM (active)
[3]
  CC50: > 20 µM (active)
Cells [6]
  IC50: 15.7 µM (active)
H9c2
  IC50: > 79 µM (inactive)

## COc1cc(N/N=C(\C)c2ccc(O)c(C)c2)nc(-c2ccccc2)n1
[21]
  AC50: 3.99 µM (active)
Vero
  CC50: > 25 µM (active)

## CC(C)c1ccc2[nH]c3c(c2c1)CCC/C3=N\NC(=O)c1ccncc1
Streptokinase A
  EC50: > 150 µM (not active)
[1]
  CC50: 26 µM (active)
[2]
  CC50: 11.6 µM (active)
Streptococcus
  EC50: 16.9 µM (active)
[3]
  CC50: > 20 µM (active)
[14]
  EC50: 3.54 µM (active)
Cells [6]
  IC50: 2 µM (active)
